Laboratory results reported in article PMC4965148 (PLoS ONE, 2016).
Values joined by “and” are separate entries in the source; they are usually repeats but may differ in a detail not shown here. Equal entries are not always repeated.

Legend:
[1] = target: T1, rat α1β1δε nAChR (Rattus norvegicus, UniProt P09660+P25108+P25109+P25110); assay: Ca2+ flux (FLIPR) agonist/antagonist assay; format: cell-based; conditions: FLIPR agonist mode; read-out: agonist EC50 at α1β1δε nAChR
T1 construct: expressed in transfected cells; host or cells: HEK293 (made by Bristol-Myers Squibb)
T1 sequence (P25108 21-457): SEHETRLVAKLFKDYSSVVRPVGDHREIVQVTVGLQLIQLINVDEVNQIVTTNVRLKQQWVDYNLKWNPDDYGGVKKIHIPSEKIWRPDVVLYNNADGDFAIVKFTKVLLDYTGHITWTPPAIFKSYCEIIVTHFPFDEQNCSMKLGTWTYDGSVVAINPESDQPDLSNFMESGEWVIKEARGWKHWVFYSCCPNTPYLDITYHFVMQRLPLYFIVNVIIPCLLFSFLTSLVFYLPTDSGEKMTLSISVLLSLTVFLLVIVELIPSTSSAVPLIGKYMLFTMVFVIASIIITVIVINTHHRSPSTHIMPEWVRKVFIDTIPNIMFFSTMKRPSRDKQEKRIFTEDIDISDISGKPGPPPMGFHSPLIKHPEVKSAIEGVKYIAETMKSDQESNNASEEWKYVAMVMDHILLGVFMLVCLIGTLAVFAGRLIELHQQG
T1 sequence (P25109 24-501): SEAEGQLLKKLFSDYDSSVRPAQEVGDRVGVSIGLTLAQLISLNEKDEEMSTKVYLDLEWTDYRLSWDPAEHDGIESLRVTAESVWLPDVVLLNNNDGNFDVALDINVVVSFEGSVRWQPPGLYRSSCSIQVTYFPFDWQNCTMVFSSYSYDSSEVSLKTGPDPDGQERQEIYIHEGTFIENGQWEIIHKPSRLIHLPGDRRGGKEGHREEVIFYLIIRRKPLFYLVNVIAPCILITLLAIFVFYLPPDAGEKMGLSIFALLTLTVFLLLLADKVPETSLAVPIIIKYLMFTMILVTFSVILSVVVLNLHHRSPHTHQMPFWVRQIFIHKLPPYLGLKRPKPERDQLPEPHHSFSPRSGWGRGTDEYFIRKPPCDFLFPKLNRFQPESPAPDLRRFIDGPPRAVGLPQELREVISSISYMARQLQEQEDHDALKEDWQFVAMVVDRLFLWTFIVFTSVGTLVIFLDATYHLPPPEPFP
T1 sequence (P25110 22-517): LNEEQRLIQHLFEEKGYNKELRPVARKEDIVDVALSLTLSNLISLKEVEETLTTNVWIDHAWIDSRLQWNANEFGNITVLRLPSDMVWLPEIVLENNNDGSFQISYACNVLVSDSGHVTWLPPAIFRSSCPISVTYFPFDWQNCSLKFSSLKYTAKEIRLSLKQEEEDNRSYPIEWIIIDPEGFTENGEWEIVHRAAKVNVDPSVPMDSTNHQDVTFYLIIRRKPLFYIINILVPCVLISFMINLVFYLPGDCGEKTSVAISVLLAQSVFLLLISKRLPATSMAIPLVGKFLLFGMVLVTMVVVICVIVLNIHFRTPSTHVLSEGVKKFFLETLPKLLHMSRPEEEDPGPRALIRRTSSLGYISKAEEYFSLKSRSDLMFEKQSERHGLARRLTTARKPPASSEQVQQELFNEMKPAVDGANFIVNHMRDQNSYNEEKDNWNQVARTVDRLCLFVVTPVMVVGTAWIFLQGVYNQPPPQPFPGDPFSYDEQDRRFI
T1 sequence (P09660 21-494): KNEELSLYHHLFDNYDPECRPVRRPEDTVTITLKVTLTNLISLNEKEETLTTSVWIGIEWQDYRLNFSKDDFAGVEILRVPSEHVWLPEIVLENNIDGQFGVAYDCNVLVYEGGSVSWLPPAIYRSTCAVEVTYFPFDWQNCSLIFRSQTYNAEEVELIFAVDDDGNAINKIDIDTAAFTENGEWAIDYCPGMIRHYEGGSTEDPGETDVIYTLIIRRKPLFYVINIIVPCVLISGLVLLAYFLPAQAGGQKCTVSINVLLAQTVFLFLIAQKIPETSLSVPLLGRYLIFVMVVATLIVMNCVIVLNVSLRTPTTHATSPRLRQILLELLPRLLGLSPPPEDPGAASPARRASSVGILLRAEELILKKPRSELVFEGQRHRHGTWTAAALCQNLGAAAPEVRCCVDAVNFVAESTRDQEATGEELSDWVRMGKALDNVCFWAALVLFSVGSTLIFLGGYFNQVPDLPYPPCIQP

[2] = target: T2, rat α4β2 nAChR (Rattus norvegicus, UniProt P09483+P12390); assay: Ca2+ flux (FLIPR) agonist/antagonist assay; format: cell-based; conditions: FLIPR agonist mode; read-out: agonist EC50 at α4β2 nAChR
T2 construct: expressed in transfected cells; host or cells: HEK293 (made by Bristol-Myers Squibb)
T2 sequence (P09483 31-630): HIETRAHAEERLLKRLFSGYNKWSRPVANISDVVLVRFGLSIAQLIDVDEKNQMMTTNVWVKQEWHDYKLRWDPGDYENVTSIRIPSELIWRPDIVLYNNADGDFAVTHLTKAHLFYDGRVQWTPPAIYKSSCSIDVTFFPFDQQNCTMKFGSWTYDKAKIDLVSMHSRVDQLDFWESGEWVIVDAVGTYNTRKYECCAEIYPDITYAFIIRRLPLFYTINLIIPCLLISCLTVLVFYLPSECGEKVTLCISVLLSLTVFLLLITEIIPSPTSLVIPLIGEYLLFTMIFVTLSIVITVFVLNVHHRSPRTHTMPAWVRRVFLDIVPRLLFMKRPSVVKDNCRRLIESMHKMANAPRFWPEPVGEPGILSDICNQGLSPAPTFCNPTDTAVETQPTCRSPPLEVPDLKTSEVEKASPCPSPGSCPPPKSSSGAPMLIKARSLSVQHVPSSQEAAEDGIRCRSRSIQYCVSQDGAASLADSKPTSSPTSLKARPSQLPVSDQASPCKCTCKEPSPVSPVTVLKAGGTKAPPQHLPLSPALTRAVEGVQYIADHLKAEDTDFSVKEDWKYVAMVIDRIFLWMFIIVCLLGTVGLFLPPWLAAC
T2 sequence (P12390 25-500): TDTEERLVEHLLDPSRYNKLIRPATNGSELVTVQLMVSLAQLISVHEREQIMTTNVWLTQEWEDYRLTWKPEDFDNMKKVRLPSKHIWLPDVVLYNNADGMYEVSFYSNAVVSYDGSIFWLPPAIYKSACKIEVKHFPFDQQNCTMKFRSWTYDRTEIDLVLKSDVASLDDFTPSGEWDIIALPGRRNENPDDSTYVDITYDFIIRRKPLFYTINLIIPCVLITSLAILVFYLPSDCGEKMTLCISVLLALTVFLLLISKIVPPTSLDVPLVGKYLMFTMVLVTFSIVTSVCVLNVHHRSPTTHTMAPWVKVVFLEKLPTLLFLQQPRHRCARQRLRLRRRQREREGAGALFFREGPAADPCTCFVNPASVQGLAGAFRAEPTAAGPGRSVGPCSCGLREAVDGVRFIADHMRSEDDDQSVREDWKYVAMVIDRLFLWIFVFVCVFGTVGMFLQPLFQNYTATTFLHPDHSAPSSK

[3] = target: T3, rat α3β4 nAChR (Rattus norvegicus, UniProt P04757+P12392); assay: Ca2+ flux (FLIPR) agonist/antagonist assay; format: cell-based; conditions: FLIPR agonist mode; read-out: agonist EC50 at α3β4 nAChR
T3 construct: expressed in transfected cells; host or cells: HEK293 (made by Bristol-Myers Squibb)
T3 sequence (P04757 26-499): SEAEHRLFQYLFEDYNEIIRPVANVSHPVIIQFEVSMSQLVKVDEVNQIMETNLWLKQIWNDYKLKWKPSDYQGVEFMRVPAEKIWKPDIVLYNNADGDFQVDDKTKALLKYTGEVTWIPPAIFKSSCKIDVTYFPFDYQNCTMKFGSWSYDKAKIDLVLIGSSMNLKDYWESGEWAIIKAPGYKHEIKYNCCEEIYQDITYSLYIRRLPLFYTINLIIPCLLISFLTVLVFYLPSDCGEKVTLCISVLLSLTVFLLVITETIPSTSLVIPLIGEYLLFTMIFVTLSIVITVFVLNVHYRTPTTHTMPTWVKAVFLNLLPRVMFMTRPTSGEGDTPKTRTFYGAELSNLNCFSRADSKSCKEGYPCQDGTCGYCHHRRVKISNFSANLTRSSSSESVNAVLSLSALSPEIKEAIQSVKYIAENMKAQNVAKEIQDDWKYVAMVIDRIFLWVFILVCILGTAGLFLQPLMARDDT
T3 sequence (P12392 21-495): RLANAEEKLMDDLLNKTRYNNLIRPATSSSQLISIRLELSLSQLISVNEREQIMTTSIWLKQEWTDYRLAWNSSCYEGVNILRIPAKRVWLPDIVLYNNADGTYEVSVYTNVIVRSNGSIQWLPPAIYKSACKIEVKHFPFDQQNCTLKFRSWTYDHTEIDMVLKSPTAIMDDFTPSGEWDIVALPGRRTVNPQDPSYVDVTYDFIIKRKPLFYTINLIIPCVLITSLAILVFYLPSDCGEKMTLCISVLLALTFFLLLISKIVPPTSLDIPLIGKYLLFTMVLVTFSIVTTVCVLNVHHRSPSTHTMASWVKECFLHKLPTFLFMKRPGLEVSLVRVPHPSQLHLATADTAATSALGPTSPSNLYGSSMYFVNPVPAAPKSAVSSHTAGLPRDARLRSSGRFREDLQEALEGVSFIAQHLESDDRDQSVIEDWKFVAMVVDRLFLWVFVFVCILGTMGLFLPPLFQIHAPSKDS

[4] = target: T4, HEK293/Human 5-HT3A (Homo sapiens, UniProt P46098); assay: Ca2+ flux (FLIPR) 5-HT3A antagonist assay; format: cell-based
T4 construct: expressed in transfected cells; host or cells: HEK293 (made by Bristol-Myers Squibb)
T4 sequence (P46098 24-478): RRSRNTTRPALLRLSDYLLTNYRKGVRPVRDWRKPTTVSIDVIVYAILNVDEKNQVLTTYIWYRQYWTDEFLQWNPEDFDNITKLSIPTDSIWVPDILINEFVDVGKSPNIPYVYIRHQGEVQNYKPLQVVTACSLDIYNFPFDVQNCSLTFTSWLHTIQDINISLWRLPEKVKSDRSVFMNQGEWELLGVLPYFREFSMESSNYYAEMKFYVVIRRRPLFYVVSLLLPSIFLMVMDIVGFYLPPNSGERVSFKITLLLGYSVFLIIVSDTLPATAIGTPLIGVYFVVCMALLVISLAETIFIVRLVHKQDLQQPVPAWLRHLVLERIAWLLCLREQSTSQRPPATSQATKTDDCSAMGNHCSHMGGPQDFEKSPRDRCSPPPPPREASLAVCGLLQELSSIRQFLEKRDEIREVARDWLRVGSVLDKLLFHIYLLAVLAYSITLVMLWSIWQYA
Description: Functional activity was examined using Ca^2+-sensitive, dye-based, microfluorometric assays read on the FLIPR Tetra plate reader platform (Molecular Devices, CA, USA). Cells were plated in 384-well black, clear-bottomed Greiner poly-D-lysine coated plates at a density of ~25 K cells/well and incubated at 29°C for 48 h. Prior to assay, media contents were removed and cells incubated in assay buffer containing 5μM final Fluo-4 dye for 90 min. For nAChR assays, the dye-loading buffer was HBSS (#14175 Life Technologies) supplemented with 20 mM HEPES, 0.5 mM CaCl2, 1 mM MgCl2 and 10 μM atropine (final concentration). Test compounds were solubilized in DMSO and serially diluted in NUNC 384-well plates prior to addition of assay buffer (5.3 mM KCl + 140 mM NaCl + 20 mM Hepes + 25 mM CaCl2 + 1 mM MgCl2 + 10 μM atropine final concentration). Compounds diluted in assay buffer were added to the assay plate by the FLIPR and read for approximately 2 min. […] For 5-HT3A antagonist studies, the dye loading and compound diluent buffer was HBSS (#14025 Life Technologies) supplemented with 20 mM HEPES (final concentration) and the concentration of 5-HT used in the assay was 2 μM. Offline transformation of concentration response data was done using a 4 parameter logistic fit using a Bristol-Myers Squibb proprietary informatics software suite.

[5] = target: HEK293/Human α7 nAChR (Homo sapiens, UniProt P36544); assay: [3H]-A-585539 filtration binding; set-up: expressed in transfected cells
HEK293/Human α7 nAChR, sequence (P36544 23-502): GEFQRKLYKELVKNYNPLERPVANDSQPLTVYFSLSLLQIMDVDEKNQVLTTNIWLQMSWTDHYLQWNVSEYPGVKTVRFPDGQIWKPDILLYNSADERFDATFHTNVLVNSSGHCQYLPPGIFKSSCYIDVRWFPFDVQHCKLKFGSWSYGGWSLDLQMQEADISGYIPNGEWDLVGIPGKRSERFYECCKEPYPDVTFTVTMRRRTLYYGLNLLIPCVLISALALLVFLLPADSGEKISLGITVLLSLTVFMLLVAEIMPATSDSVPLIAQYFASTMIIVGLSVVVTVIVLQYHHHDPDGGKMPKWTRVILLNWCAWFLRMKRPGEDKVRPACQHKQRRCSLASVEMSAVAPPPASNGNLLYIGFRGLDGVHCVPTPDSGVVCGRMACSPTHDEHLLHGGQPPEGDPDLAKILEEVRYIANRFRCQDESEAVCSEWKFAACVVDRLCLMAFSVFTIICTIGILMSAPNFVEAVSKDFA

[6] = target: Rat Brain α7 nAChR (Rattus norvegicus, UniProt Q05941); assay: [3H]-A-585539 filtration binding
Rat Brain α7 nAChR, sequence (Q05941 23-502): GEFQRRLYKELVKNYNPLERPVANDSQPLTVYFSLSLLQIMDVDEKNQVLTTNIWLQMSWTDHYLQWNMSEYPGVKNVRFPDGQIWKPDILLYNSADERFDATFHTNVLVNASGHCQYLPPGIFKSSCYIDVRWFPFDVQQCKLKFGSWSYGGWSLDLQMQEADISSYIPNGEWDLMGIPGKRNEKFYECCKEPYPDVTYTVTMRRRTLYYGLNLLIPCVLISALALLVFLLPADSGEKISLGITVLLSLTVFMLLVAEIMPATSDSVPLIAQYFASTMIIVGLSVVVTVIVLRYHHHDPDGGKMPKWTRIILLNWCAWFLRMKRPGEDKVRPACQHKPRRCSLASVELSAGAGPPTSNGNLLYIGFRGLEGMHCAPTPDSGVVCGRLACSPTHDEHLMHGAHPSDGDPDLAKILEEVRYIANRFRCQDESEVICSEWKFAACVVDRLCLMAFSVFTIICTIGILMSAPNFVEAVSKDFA

[7] = HEK293/Human 5-HT3A Mean ± SD IC50, Ca2+ flux (FLIPR), antagonism of 2 μM 5-HT
[8] = Human 5-HT3A IC50 values (individual), FLIPR, individual determinations

Row | SMILES | EC50 [1] [nM] | EC50 [2] [nM] | EC50 [3] [nM] | Ratio (5-HT3A IC50 / α7 nAChR EC50; functional selectivity) ([4]; FLIPR) | IC50 [4, 7] [nM] | IC50 [4, 8] | Kd ([5]; recombinant human α7 nAChR, n = 2, read-out: mean Kd, saturation binding) [nM] | Ki ([6]; Rat Brain α7 nAChR Ki (individual)) | Ki ([6]; Rat Brain α7 nAChR Mean ± SD Ki) [nM] | Ki ([5]; HEK293/Human α7 nAChR Mean ± SD Ki) [nM] | Ki ([5]; HEK293/human α7 nAChR Ki (individual))
1 | Cl.O=C(N[C@H]1CN2CCC1CC2)c1ccc(Cl)cc1 [PNU-282987, N-(3R)-1-azabicyclo[2.2.2]oct-3-yl-4-chloro-benzamide hydrochloride] | > 100000 | > 100000 | > 100000 | 264 | 24900 | 32100 nM and 23600 nM and 6350 nM and 38400 nM and 24100 nM | – | – | – | – | –
2 | C[N+]1(C)CC2CC1CN2c1ccc(-c2ccccc2)nn1 (centres unmarked) [[^3H]-A-585539, ^3H-2,2-dimethyl-5-(6-phenyl-3-pyridazinyl)-5-aza-2-azoniabicyclo[2.2.1]heptane iodide] | – | – | – | – | – | – | 0.656 | – | – | – | –
3 | CN1CC2CN(c3ccc(-c4ccccc4)nn3)CC2C1.Cl.Cl (centres unmarked) [A-582941, octahydro-2-methyl-5-(6-phenyl-3-pyridazinyl)-pyrrolo[3,4-c]pyrrole dihydrochloride] | > 100000 | > 100000 | > 100000 | 1.1 | 102 ± 86 | 73 nM and 75 nM and 76 nM and 109 nM and 47 nM and 79 nM and 59 nM and 86 nM and 344 nM and 72 nM | – | 23 nM and 20.3 nM | 21.7 | 82.6 | 99 nM and 72.5 nM and 76.3 nM
